We go through 2 compounds from article PMC4977651, “Molecular features of biguanides required for targeting of mitochondrial respiratory complex I and activation of AMP-kinase” (BMC Biology, 2016).

A word on the IC50: it is the midpoint of a concentration-inhibition curve.

The subject of one experiment is 143B cells. The experiment is described as follows: Rotenone-sensitive oxygen consumption rate in intact 143B cells. The format is cell-based, human. As to conditions: 143B cells, biguanide at IC50/10; for rotenone sensitive OCR after 6 hours of biguanide exposure, average: OCR normalized to OCR immediately prior to biguanide addition. As to the method:
143B (CRL-8303 from ATCC), HepG2 (85011430 from The Health Protection Agency), and MDBK (CCL-22 from ATCC) cells were grown on Dulbecco’s modified Eagle’s medium (DMEM) supplemented with 10 % fetal bovine serum (FBS, Thermo Fisher Scientific) at 37 °C in 5 % CO2. All cells were confirmed as negative for mycoplasma.
Oxygen consumption rates (OCRs) were measured using a Seahorse XF96 extracellular flux analyzer at 37 °C. For intact cell measurements, 1.4 × 10^4 143B, HepG2, or MDBK cells were plated (per well) in DMEM containing 10 % FBS into Seahorse Bioscience Inc. XF96 plates and incubated for ~12 h at 37 °C in 5 % CO2. Then, the medium was exchanged for assay buffer containing DMEM, 4.5 g L^−1 glucose, 1 mM pyruvate, 32 mM NaCl, 2 mM GlutaMAX, 15 mg L^−1 phenol red, and 20 mM HEPES (pH 7.4 at 37 °C) and the cells placed in a CO2-free incubator at 37 °C for 30 min. Basal oxygen consumption rates were established before the addition of biguanides at one-tenth of their IC50 (IC50/10), and followed for ~ 6 h before the addition of rotenone (2 μM).
Rotenone-sensitive OCRs were calculated by subtracting the rotenone-insensitive rates (determined at the end of the experiment). OCRs were normalized by dividing by the OCR recorded immediately prior to the addition of biguanide. For rate of uptake calculations, the OCRs at time points after biguanide addition were divided by the OCRs at the same time points in control experiments. Data from wells with failed port injections were excluded from the analyses. The respiratory control ratio (RCR) values (state III versus state IV respiration) were ~11 and ~6 for permeabilized MDBK and 143B cells, respectively.

In experiment [1] the test system is bovine mitochondrial membranes (complexes II-III-IV). The experiment can be described thus: Succinate:O2 oxidoreduction (complexes II-III-IV, complex II assay) by bovine mitochondrial membranes. The format is biochemical, Bos taurus. As to conditions: biguanide concentrations set to the IC50 values for NADH:O2 on bovine membranes; control = 100.00; n = 3. As to the method: (§1) Assays were performed at 32 °C in a SpectraMax 96-well plate reader. NADH:decylubiquinone oxidoreduction by complex I at 0.5 μg mL^−1 was measured in 20 mM Tris-HCl (pH 7.2), 0.15 % soy bean asolectin (Avanti Polar Lipids), and 0.15 % 3-((3-cholamidopropyl)dimethylammonium)-1-propanesulfonate (CHAPS, Merck Chemicals Ltd), with 200 μM decylubiquinone and 200 μM NADH, and monitored using ε340–380(NADH) = 4.81 mM^−1 cm^−1 [23]. Catalysis was initiated by addition of NADH and maximal rates determined by linear regression. NADH:O2 oxidoreduction by membranes was measured similarly but using 5 μg mL^−1 membranes in 10 mM Tris-HCl (pH 7.4) and 250 mM sucrose using 200 μM NADH and supplemented with 0.15 mM horse heart cytochrome c (Sigma-Aldrich Ltd.). Succinate:O2 oxidoreduction was measured using 40 μg mL^−1 membranes in 5 mM succinate in 10 mM Tris-HCl (pH 7.4) as described previously. Control experiments included NaCl (to match the ionic strength) or DMSO, as appropriate.

The subject of the next experiment is AMPK-α (phospho-Thr172). The experiment is described as follows: AMPK activation, western blot of phospho-AMPK-α in MDBK cells. The format is cell-based, Bos taurus. The note with it: for p-alpha, average normalised to control: Averages of experiments 1-3, 18 hours; for p-alpha: band intensity. As to the method:
MDBK cells were seeded at 1 × 10^6 cells per 6 cm dish in DMEM containing 10 % FBS. […] After 18 h cells were harvested by a rapid lysis procedure: cells were rinsed with PBS, then lysed using ice-cold buffer containing 50 mM HEPES, 1 mM EDTA, 10 % glycerol, 50 mM NaF, 5 mM sodium pyrophosphate, 1 % Triton-X100, 1 mM dithiothreitol (DTT), and a protease inhibitor cocktail (Roche). The cell lysate was centrifuged at 14,000 × g for 20 min at 4 °C and the protein concentration of the supernatant determined by bicinchoninic acid assay. The lysate was analyzed using Novex 3–12 % bis-Tris gels run in 3-(N-morpholino)propanesulfonic acid (MOPS) buffer (20 μg of protein per lane) followed by transfer to low fluorescence polyvinylidene fluoride membranes by wet transfer. Primary rabbit antibodies for AMPK-β (57C12), AMPK-α (phospho-Thr172) (40H9), and acetyl-coA carboxylase (phospho-Ser79) (Cell Signaling Technology) were incubated overnight with the membrane (1:1000 dilution) in Odyssey blocking buffer at 4 °C. A fluorescent secondary antibody was used (IRDYE800CW from LI-COR Biosciences, 1:20,000 dilution) with a LI-COR Odyssey imaging system.

Experiment [2] deals with bovine heart mitochondrial membranes (complex I) (Bos taurus, UniProt P03887+P03898+P17694+P42026). The experiment can be described thus: NADH:O2 oxidoreduction by bovine heart mitochondrial membranes (complexes I-III-IV). The format is biochemical. How it is done:
Complex I and mitochondrial membranes were prepared from Bos taurus (bovine) heart. Intact mitochondria were isolated from rat liver and mouse heart and liver. Membranes were prepared from mouse heart mitochondria by 5 s bursts of sonication at 4 °C and collected by centrifugation (75,000 × g, 1 h).
as §1
Experimental values are reported as mean averages ± standard deviation (SD) of technical replicates for large sample sizes and mean averages ± standard error of the mean (SEM) of technical replicates for small sample sizes. Data were analyzed by the unpaired two-tailed Student’s t test. IC50 values were determined using the standard dose-effect relationship (activity (%) = 100 × IC50 / (IC50 + [inhibitor]^m) with the Hill Slope (m) set to unity for purified complex I) and are reported with 95 % confidence intervals.

Sequence of bovine heart mitochondrial membranes (complex I) (P42026 38-216): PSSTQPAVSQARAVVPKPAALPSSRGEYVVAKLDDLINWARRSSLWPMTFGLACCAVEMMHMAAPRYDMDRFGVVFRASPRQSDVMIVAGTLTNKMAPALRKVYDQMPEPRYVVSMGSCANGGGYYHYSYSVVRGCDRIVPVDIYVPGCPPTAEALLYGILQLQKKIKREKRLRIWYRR
Sequence of bovine heart mitochondrial membranes (complex I) (P17694 34-463): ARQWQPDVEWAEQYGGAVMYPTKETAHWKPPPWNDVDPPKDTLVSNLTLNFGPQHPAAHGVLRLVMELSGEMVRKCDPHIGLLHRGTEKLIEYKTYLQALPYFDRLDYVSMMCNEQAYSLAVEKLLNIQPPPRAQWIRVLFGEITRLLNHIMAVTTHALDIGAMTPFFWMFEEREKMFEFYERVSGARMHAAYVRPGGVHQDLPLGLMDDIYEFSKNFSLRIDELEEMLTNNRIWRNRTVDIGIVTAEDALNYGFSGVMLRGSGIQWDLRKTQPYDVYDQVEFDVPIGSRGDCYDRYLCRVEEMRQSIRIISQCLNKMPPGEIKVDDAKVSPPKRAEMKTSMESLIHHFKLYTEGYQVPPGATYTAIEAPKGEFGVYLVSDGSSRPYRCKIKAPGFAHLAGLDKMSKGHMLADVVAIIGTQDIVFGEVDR
Sequence of bovine heart mitochondrial membranes (complex I) (P03887 whole entry): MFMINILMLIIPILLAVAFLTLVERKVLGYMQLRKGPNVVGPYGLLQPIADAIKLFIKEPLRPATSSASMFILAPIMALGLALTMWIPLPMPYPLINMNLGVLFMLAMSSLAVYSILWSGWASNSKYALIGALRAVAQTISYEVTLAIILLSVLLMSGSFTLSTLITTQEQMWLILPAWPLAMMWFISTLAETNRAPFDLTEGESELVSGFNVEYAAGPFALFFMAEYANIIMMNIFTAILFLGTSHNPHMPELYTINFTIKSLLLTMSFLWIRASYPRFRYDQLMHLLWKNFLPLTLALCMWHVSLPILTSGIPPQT
Sequence of bovine heart mitochondrial membranes (complex I) (P03898 whole entry): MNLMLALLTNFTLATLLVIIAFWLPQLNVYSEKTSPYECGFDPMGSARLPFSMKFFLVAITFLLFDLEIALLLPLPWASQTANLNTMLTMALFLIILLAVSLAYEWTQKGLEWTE

In the case of `[H]/N=C(/N)N/C(=N/[H])NCCc1ccccc1` [phenformin, reference compound], in the experiment on 143B cells, the “rotenone sensitive OCR after 6 hours of biguanide exposure, % control, average” value came out at 9.47 % control and the “rotenone sensitive OCR after 6 hours of biguanide exposure, average” value turned out to be 11.10. Also, in experiment [1], the “Complex II assay (succinate:O2 oxidoreduction), average” value is listed as 95.51. Besides, the “AMPK activation (in words)” value with AMPK-α (phospho-Thr172) (18-h treatment, IC50/10 biguanide concentrations) is given as “slightly lower activation”. In addition, the “p-alpha, average normalised to control” value in the experiment with AMPK-α (phospho-Thr172) came out at 3.64. Also, in the experiment on AMPK-α (phospho-Thr172) (Experiment 1, 18 hours), the “p-alpha / AMPK beta” value is 0.44, the “p-alpha / AMPK beta normalised to control” value stood at 3.54 and the p-alpha amounted to 203. In the experiment with AMPK-α (phospho-Thr172) (Experiment 2, 18 hours), the “p-alpha / AMPK beta” value stood at 0.63, the “p-alpha / AMPK beta normalised to control” value turned out to be 4.29 and the p-alpha came to 234. In addition, in the experiment with AMPK-α (phospho-Thr172) (Experiment 3, 18 hours), the “p-alpha / AMPK beta” value was determined as 0.64, the “p-alpha / AMPK beta normalised to control” value is on record as 3.08 and the p-alpha is reported as 154.

For `[H]/N=C(\N/C(=N/[H])Nc1ccc(Cl)cc1)NC(C)C` [proguanil, reference compound], in the experiment on 143B cells, the “rotenone sensitive OCR after 6 hours of biguanide exposure, % control, average” value turned out to be 94.32 % control and the “rotenone sensitive OCR after 6 hours of biguanide exposure, average” value is on record as 110.56. The “Complex II assay (succinate:O2 oxidoreduction), average” value in experiment [1] is 95.35. In addition, the “p-alpha, average normalised to control” value in the experiment on AMPK-α (phospho-Thr172) is reported as 1.33. Also, in the experiment on AMPK-α (phospho-Thr172) (Experiment 1, 18 hours), the “p-alpha / AMPK beta” value turned out to be 0.15, the “p-alpha / AMPK beta normalised to control” value was found to be 1.20 and the p-alpha was found to be 71.3. In addition, in the experiment with AMPK-α (phospho-Thr172) (Experiment 2, 18 hours), the “p-alpha / AMPK beta” value stood at 0.19, the “p-alpha / AMPK beta normalised to control” value is 1.32 and the p-alpha worked out at 68.2. Further, in the experiment with AMPK-α (phospho-Thr172) (Experiment 3, 18 hours), the “p-alpha / AMPK beta” value was 0.30, the “p-alpha / AMPK beta normalised to control” value was 1.47 and the p-alpha was found to be 59.7. The remaining activity at 5 µM in experiment [2] (bovine heart mitochondrial membranes, inhibitor 0.005 mM, read-out: average % (rate, % of no-inhibitor control)) is 76.5%. Further, the remaining activity at 12.5 µM in experiment [2] (bovine heart mitochondrial membranes, inhibitor 0.0125 mM, read-out: average % (rate, % of no-inhibitor control)) was found to be 56.2%. Also, in experiment [2] (bovine heart mitochondrial membranes, inhibitor 0.025 mM, read-out: average % (rate, % of no-inhibitor control)), the remaining activity at 25 µM came out at 41.4%. Besides, the remaining activity at 50 µM in experiment [2] (bovine heart mitochondrial membranes, inhibitor 0.05 mM, read-out: average % (rate, % of no-inhibitor control)) stood at 24.9%. The remaining activity at 100 µM in experiment [2] (bovine heart mitochondrial membranes, inhibitor 0.10 mM, read-out: average % (rate, % of no-inhibitor control)) came to 7.77%. The remaining activity at 250 µM in experiment [2] (bovine heart mitochondrial membranes, inhibitor 0.25 mM, read-out: average % (rate, % of no-inhibitor control)) was 6.98%. The remaining activity at 500 µM in experiment [2] (bovine heart mitochondrial membranes, inhibitor 0.50 mM, read-out: average % (rate, % of no-inhibitor control)) came out at 7.97%. For the same compound, in experiment [2] (log of concentration in mM, sample given as Bovine heart mitochondrial membranes, Prism variable slope fit, Bottom 0, Top 100), the “LogIC50 (best fit value)” value is -1.788. Further, the IC50 in experiment [2] (read-out: IC50 (best fit value), sample given as Bovine heart mitochondrial membranes, Prism log(inhibitor) vs. response variable slope fit (four parameters), Bottom 0, Top 100) was 16.3 µM. For the same compound, the “HillSlope (best fit value)” value in experiment [2] (sample given as Bovine heart mitochondrial membranes, Prism variable slope fit, Bottom 0, Top 100) is -1.025.
